Earlier results as cited in patent US7026304B2, “2-alkylated-cyclodextrin derivatives: reversal agents for drug-induced neuromuscular block” (Akzo Nobel N.V., priority 2001, dated 2006).

System: steady-state neuromuscular block induced by the muscle relaxant rocuronium bromide (Roc)
Conditions: anaesthetized guinea pigs, as already described in WO 01/12202, cited from earlier work

Compound: OC[C@H]1O[C@@H]2O[C@H]3[C@H](O)[C@@H](O)[C@@H](O[C@H]4[C@H](O)[C@@H](O)[C@@H](O[C@H]5[C@H](O)[C@@H](O)[C@@H](O[C@H]6[C@H](O)[C@@H](O)[C@@H](O[C@H]7[C@H](O)[C@@H](O)[C@@H](O[C@H]8[C@H](O)[C@@H](O)[C@@H](O[C@H]1[C@H](O)[C@H]2O)O[C@@H]8CO)O[C@@H]7CO)O[C@@H]6CO)O[C@@H]5CO)O[C@@H]4CO)O[C@@H]3CO [β-cyclodextrin]
- ED50, dose producing 50% reversal of steady-state neuromuscular block (parent cyclodextrins for comparison): 20 µmol/kg
- % max reversal (parent cyclodextrins): 93%
- dose at maximum reversal (parent cyclodextrins): (113) μmol · kg^−1
